Assay results: the supplement of paper PMC6470124

How the values were obtained:
[1] = absolute recovery over mixed-bed multilayer solid-phase extraction; higher = better recovery; conditions: enrichment method: SPE
Procedure, shortened: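 Absolute recovery was calculated by comparing background-corrected response ratios of samples spiked before extraction with those spiked after it, averaged over at least two replicates. Wastewater (100–250 mL, adjusted to pH 6.5 and glass-fibre filtered) or 1000 mL of unfiltered nanopure water was passed through a three-layer mixed-bed cartridge and eluted with basic and then acidic ethyl acetate/methanol. Standards were added before extraction, after extraction, or not at all, at 200 ng/L in water or 1000 ng/L in wastewater, with exceptions for some classes. Internal standards were added afterwards, and samples were analysed by liquid chromatography with high-resolution tandem mass spectrometry in both ionisation modes.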

[2] = absolute recovery over vacuum-assisted evaporative concentration; higher = better recovery; conditions: enrichment method: VEC
Procedure, shortened: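 Water samples (influent 6 mL, effluent 15 mL, surface and nanopure water 60 mL) were spiked with standards before concentration, after concentration or not at all, at 200 ng/L (nanopure/surface) or 1000 ng/L (wastewater), with class- and compound-specific adjustments. They were evaporated at 55 °C and 20 mbar to about 0.3 mL, brought to 0.4 mL and centrifuged. Internal standards were added afterwards and samples were analysed by LC-HRMS/MS. Absolute recovery was (response ratio pre − unspiked)/(post − unspiked) × 100, using averages of ≥ 2 replicates.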

[3] = LC retention time (Atlantis T3, 5-95% MeOH gradient, 0.1% formic acid); higher = more retained / less polar
Procedure, shortened: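 Retention times were recorded for reference standards on a polar reversed-phase C18 column. The standards were of purity ≥ 95%, and the Atlantis T3 column (3 × 150 mm, 3 μm) was run at 0.3 mL/min with a gradient from 5 to 95% methanol over 17.5 min, both water and methanol containing 0.1% formic acid. Detection used high-resolution tandem mass spectrometry on a QExactive Plus, with positive and negative electrospray in separate runs, and peaks were integrated in TraceFinder (5 ppm tolerance, at least three points per peak) before being checked by hand.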

Compound	absolute recovery ([1]; nanopure water) [%]	absolute recovery ([1]; surface water) [%]	absolute recovery ([1]; wastewater effluent) [%]	absolute recovery ([1]; wastewater influent) [%]	absolute recovery ([2]; wastewater effluent) [%]	absolute recovery ([2]; wastewater influent) [%]	LC retention time [3] [min]
CC(COc1ccccc1Cc1ccccc1)[NH+]1CCCCC1 (stereo unspecified) [Benproperine]	93.2	111	93.7	70.7	117	109	16.2
CC(C)N1C(=O)c2ccccc2[N-]S1(=O)=O [Bentazon]	97.3	97.5		93.1	105	101	17.8
CC(C)OC(=O)NC(C(=O)NC(C)c1nc2ccc(F)cc2s1)C(C)C (stereo unspecified) [Benthiavalicarb-isopropyl]	94.2	94.6	95.3	94.3	108	102	19.7
O=c1[nH]sc2ccccc12 [Benzisothiazolin-3-on (=BIT)]	79.3	76.3	72	142	86.7	22.6	14.2
COc1ccc(C(=O)c2ccccc2)c(O)c1 [Benzophenon-3 (=2-Hydroxy-4-methoxybenzophenon)]	100	111	100	77.4	51.4	56.6	20.7
c1ccc2[nH]nnc2c1 [Benzotriazol]	99.4			95.1	104	102	13.4
C[NH+]1C2CCC1C(C(=O)[O-])C(OC(=O)c1ccccc1)C2 (stereo unspecified) [Benzoylecgonin]	97.8	96	94.8	95.1	120	110	12.8
CC(=O)OCC(=O)C1(O)C(C)CC2C3CCC4=CC(=O)C=CC4(C)C3(F)C(O)CC21C (stereo unspecified) [Betamethasone 21-acetate C]	93.1	89.4	89	98.3	92.7	85.2	19.6
CC1CC2C3CCC4=CC(=O)C=CC4(C)C3(F)C(O)CC2(C)C1(O)C(=O)CO (stereo unspecified) [Betamethasone]	93.8	88.9	90.5	98.7	104	102	18.7
CC(C)(Oc1ccc(CCNC(=O)c2ccc(Cl)cc2)cc1)C(=O)[O-] [Bezafibrat]	98	98.8	92.9	94	104	103	19.5
CC(O)(CS(=O)(=O)c1ccc(F)cc1)C(=O)Nc1ccc(C#N)c(C(F)(F)F)c1 (stereo unspecified) [Bicalutamid]	100	97	94.3	95.2		102	18.6
O=C([O-])c1cc(Oc2ccc(Cl)cc2Cl)ccc1[N+](=O)[O-] [Bifenox-acid]	75.6	63.6	77	124	104	108	23.4
CC(C)[NH2+]CC(O)COc1ccc(COCCOC(C)C)cc1 (stereo unspecified) [Bisoprolol]	103	91.8	91.4	89.8	110	98.1	13.8
Cn1cc(C(=O)Nc2ccc(F)cc2-c2ccc(Cl)c(Cl)c2)c(C(F)F)n1 [Bixafen]	95.4	101	102	76.1	109	108	20.5
O=C(Nc1ccccc1-c1ccc(Cl)cc1)c1cccnc1Cl [Boscalid]	102	97.2	95.2	104	88.4	105	19.4
N#Cc1cc(Br)c([O-])c(Br)c1 [Bromoxynil]	92.1	82.5	86.9	108	101	90.3	18.6
O=[N+]([O-])C(Br)(CO)CO [Bronopol]	13.9	6.4	7	7.8	52.8		9.24
CCCCOc1ccc(CC(=O)NO)cc1 [Bufexamac]	88.6	83.9	83.3	84.7	93.4	71.9	17.9
CCCCc1c(C)nc(NCC)nc1OS(=O)(=O)N(C)C [Bupirimate]	83.8	85.1	93.3	74.8	105	117	19.3
CCCC[NH+]1CCCCC1C(=O)Nc1c(C)cccc1C (stereo unspecified) [Bupivacaine]	92	93.1	90.3	93.7	104	103	13.9
CC(C)N1C(=O)N(c2ccccc2)CSC1=NC(C)(C)C [Buprofezin]	67.9	86.2	87.5	118	75.3	100	22
CC([NH2+]C(C)(C)C)C(=O)c1cccc(Cl)c1 (stereo unspecified) [Bupropion]	79.1	78	74.3	78.3	51.1	31.5	13.5
CCOc1nc2cccc(C(=O)[O-])c2n1Cc1ccc(-c2ccccc2-c2nnn[n-]2)cc1 [Candesartan]	96.9	97.3	90.7	92.5	104	99.4	18.7
CCCCCOC(=O)[N-]c1nc(=O)n(C2OC(C)C(O)C2O)cc1F (stereo unspecified) [Capecitabin]	93.3	93.1	90.8	96.3	108	101	17.7
NC(=O)N1c2ccccc2C(O)C(O)c2ccccc21 (stereo unspecified) [Carbamazepin-10-11-dihydro-10-11-dihydroxy]	95.2	97.5	94.2	96	97.7	93.4	15.3
NC(=O)N1c2ccccc2C2OC2c2ccccc21 (stereo unspecified) [Carbamazepin-10-11-epoxid]	96.6	97.3	94.8	92.2	105	102	15.7

Compound	absolute recovery ([1]; nanopure water) [%]	absolute recovery ([1]; surface water) [%]	absolute recovery ([1]; wastewater effluent) [%]	absolute recovery ([1]; wastewater influent) [%]	absolute recovery ([2]; wastewater effluent) [%]	absolute recovery ([2]; wastewater influent) [%]	LC retention time [3] [min]
NC(=O)N1c2ccccc2C=Cc2ccccc21 [Carbamazepin]	99	97.8	93.5	93.2	104	98.2	17.6
COC(=O)Nc1nc2ccccc2[nH]1 [Carbendazim]	96.1	94.3	93.2	94.1	105	103	10.8
CCNC(=O)C(C)OC(=O)Nc1ccccc1 (stereo unspecified) [Carbetamid]	94.2	100	94.9	88.7	118	101	16.5
CNC(=O)Oc1cccc2c1OC(C)(C)C2 [Carbofuran]	91.7	91.3	94.7	93.5	83.9	96.7	17
CCCC(C)(COC(N)=O)COC(=O)NC(C)C (stereo unspecified) [Carisoprodol]	99.3	97.9	93.1	92.4	104	102	18.1
CC([NH3+])C(O)c1ccccc1 (stereo unspecified) [Cathine]	75.1	70.2	68.1	77.6	104	96.1	9.27
CCN(CC)C(=O)Nc1ccc(OCC(O)C[NH2+]C(C)(C)C)c(C(C)=O)c1 (stereo unspecified) [Celiprolol]	86.4	84.3	90.1	84.6	103	103	13
O=C([O-])COCC[NH+]1CCN(C(c2ccccc2)c2ccc(Cl)cc2)CC1 (stereo unspecified) [Cetirizin]	97.8	96.3	95.8	92.2	107	100	17.4
CCOP(=O)(OCC)OC(=CCl)c1ccc(Cl)cc1Cl [Chlorfenvinphos]	85.1	86.4	94.3	86.9	112	104	20.9
Nc1cn[nH+]c([O-])c1Cl [Chloridazon-desphenyl]	58.5	67.9	70.2	72.3	102	98.3	7.56
Cn1ncc(N)c(Cl)c1=O [Chloridazon-methyl-desphenyl]	91.5	102	97	101	99.2	104	10.2
Nc1cnn(-c2ccccc2)c(=O)c1Cl [Chloridazon]	97.1	98.1		96.1	104	104	14.7
NS(=O)(=O)c1cc(C2(O)NC(=O)c3ccccc32)ccc1Cl (stereo unspecified) [Chlorthalidon]	94.1		96.5		98.1	104	14.2
Cc1ccc(NC(=O)N(C)C)cc1Cl [Chlortoluron]	98	101	93	94.8	107	102	18.2
CC1(C)CC1C(=O)NC(=CCCCCSCC([NH3+])C(=O)[O-])C(=O)[O-] (stereo unspecified) [Cilastatin]	47.7	13.1	19.5	37	103	80.5	13.6
O=C([O-])c1cn(C2CC2)c2cc(N3CC[NH2+]CC3)c(F)cc2c1=O [Ciprofloxacin]	77.2	73.9	72.6	73.8	105		11.7
C[NH+](C)CCCC1(c2ccc(F)cc2)OCc2cc(C#N)ccc21 (stereo unspecified) [Citalopram]	94.1	96.1	92.4	93.9	104	100	14.5
CCC1OC(=O)C(C)C(OC2CC(C)(OC)C(O)C(C)O2)C(C)C(OC2OC(C)CC([N+](C)(C)[O-])C2O)C(C)(OC)CC(C)C(=O)C(C)C(O)C1(C)O (stereo unspecified) [Clarithromycin-N-Oxide]	91.1	85.3	96.6	93.9	103	95.9	17.3
CCC1OC(=O)C(C)C(OC2CC(C)(OC)C(O)C(C)O2)C(C)C(OC2OC(C)CC([NH+](C)C)C2O)C(C)(OC)CC(C)C(=O)C(C)C(O)C1(C)O (stereo unspecified) [Clarithromycin]	89.7	98.5	91	85.1	100	105	16.9
CC(C)(C)C(=O)C(Oc1ccc(Cl)cc1)n1ccnc1 (stereo unspecified) [Climbazol]	98.6	96.1	91.7	90.1	106	101	16.5
CCCC1CC(C(=O)NC(C(C)Cl)C2OC(SC)C(O)C(O)C2O)[NH+](C)C1 (stereo unspecified) [Clindamycin]	90.1	94.8	90	78.7	100	73.2	14.6
CC(C)(Oc1ccc(Cl)cc1)C(=O)[O-] [Clofibric-acid]	96.4	94.1	93.9	92.9	105	103	19.3
CC1(C)CON(Cc2ccccc2Cl)C1=O [Clomazon]		92.1	82.7	87.1	80.3	78	19
O=C([O-])C(c1ccccc1Cl)[NH+]1CCc2sccc2C1 (stereo unspecified) [Clopidogrel-Carboxylic-Acid]	93.2	94	91.1	92.8	103	102	14.8
CCCCCC(C)OC(=O)COc1ccc(Cl)c2cccnc12 (stereo unspecified) [Cloquintocet-mexyl]	56.8	67.2	70.9		111	103	22.4
